Test results from US12428370B2, “Haloallylamine dual amine oxidase inhibitors” (Syntara Limited, priority 2020, dated 2025).

Legend:
[1] = biological target: T1, human recombinant SSAO/VAP-1 (Homo sapiens, UniProt Q16853); experiment: Inhibition of human recombinant SSAO/VAP-1 (Amplex Red fluorometric assay); type: biochemical; settings: 30 min incubation, 37° C., benzylamine substrate
T1 construct: a cloned cDNA template corresponding to residues 34-763 of human SSAO/VAP-1; TEV cleavage site (N); made in house
T1 sequence (Q16853 34-763): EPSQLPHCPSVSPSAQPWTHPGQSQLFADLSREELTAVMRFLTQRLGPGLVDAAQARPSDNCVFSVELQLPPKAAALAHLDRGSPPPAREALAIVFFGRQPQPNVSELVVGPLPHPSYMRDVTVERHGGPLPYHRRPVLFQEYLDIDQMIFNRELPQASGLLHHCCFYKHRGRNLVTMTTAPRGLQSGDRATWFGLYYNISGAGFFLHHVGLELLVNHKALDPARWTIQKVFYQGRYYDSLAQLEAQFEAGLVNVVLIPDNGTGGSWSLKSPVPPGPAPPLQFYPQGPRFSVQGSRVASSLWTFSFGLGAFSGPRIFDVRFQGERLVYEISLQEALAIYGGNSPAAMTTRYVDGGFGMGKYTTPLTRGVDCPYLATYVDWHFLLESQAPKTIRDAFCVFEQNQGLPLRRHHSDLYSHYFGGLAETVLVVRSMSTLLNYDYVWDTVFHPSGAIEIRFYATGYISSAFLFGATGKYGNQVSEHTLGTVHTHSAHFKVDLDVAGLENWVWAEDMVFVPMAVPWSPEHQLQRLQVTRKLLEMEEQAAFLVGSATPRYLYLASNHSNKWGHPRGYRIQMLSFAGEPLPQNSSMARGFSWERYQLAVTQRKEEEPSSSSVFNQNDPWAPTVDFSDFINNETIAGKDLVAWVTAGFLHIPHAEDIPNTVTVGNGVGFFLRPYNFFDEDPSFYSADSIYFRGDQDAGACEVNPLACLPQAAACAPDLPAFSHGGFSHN
Description: Method to Determine the Ability of Compounds of Formula I to Inhibit Human Recombinant SSAO/VAP-1
Human recombinant SSAO/VAP-1 amine oxidase activity was determined using the method as described for monoamine oxidase, copper-containing amine oxidases and related enzymes (Holt A. and Palcic M., Nat. Protoc. 2006, 1, 2498-2505). Briefly, a cloned cDNA template corresponding to residues 34-763 of human SSAO/VAP-1, and incorporating a mouse Ig kappa (κ) signal sequence, N-terminal flag epitope tag and tobacco etch virus (TEV) cleavage site, was assembled in a mammalian expression vector (pLO-CMV) by Geneart AG. This vector containing human SSAO/VAP-1 residues was transfected into CHO-K1 glycosylation mutant cell line, Lec 8. A clone stably expressing human SSAO/VAP-1 was isolated and cultured in large scale. Active human SSAO/VAP-1 was purified and recovered using immunoaffinity chromatography. This was used as the source for SSAO/VAP-1 activity. A high-throughput colorimetric assay was developed using either 96 or 384 well format. Briefly, in a standard 96 well plate assay 50 μL of purified human SSAO/VAP-1 (0.25 μg/mL) in 0.1 M sodium phosphate buffer (pH 7.4) was added into each well. […] After 30 min incubation, 50 μL of the reaction mixture containing 600 μM benzylamine (Sigma Aldrich), 120 μM Amplex Red (Sigma Aldrich) and 1.5 U/mL horseradish peroxidase (Sigma Aldrich) prepared in 0.1 M sodium phosphate buffer (pH 7.4) were added to the corresponding well. The fluorescence unit (RFU) was read every 2.5 min for 30 min at 37° C. excitation 565 nm and emission 590 nm (Optima; BMG labtech). The slope of the kinetics for each well was calculated using MARS data analysis software (BMG labtech) and this value was used to deduce the IC50 value (Dotmatics).

Recombinant human MAO-B = biological target: T2, Recombinant human MAO-B (Homo sapiens, UniProt P27338); experiment: Inhibition of human recombinant MAO-B; type: biochemical; settings: incubation time of 2 hours, benzylamine 100 μM
T2 construct: purchased Sigma Aldrich
T2 sequence (P27338 1-520): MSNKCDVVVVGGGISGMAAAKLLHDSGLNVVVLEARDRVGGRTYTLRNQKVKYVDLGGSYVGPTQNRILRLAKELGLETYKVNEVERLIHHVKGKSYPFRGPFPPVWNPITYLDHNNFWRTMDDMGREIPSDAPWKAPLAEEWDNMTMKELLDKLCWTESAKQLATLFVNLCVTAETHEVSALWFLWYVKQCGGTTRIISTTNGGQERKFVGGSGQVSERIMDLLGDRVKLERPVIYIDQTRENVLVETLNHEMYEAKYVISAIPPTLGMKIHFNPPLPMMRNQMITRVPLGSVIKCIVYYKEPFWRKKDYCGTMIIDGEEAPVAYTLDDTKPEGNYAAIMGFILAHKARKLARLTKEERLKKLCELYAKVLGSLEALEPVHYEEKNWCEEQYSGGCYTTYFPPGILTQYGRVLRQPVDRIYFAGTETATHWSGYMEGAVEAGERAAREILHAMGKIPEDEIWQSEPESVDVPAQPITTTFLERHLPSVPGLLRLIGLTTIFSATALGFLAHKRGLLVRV
Description: Method to Determine the Ability of Compounds of Formula I to Inhibit Human Recombinant MAO-B
The ability of the compounds of this invention to inhibit MAO-B activities in vitro was tested. Recombinant human MAO-B (0.06 mg/mL; Sigma Aldrich) was used as source of MAO-B enzyme activities.

recombinant human MAO-A = biological target: T3, recombinant human MAO-A (Homo sapiens, UniProt P21397); experiment: Inhibition of human recombinant MAO-A; type: biochemical; settings: incubation time of 2 hours, tyramine 100 μM
T3 construct: purchased Sigma Aldrich
T3 sequence (P21397 1-527): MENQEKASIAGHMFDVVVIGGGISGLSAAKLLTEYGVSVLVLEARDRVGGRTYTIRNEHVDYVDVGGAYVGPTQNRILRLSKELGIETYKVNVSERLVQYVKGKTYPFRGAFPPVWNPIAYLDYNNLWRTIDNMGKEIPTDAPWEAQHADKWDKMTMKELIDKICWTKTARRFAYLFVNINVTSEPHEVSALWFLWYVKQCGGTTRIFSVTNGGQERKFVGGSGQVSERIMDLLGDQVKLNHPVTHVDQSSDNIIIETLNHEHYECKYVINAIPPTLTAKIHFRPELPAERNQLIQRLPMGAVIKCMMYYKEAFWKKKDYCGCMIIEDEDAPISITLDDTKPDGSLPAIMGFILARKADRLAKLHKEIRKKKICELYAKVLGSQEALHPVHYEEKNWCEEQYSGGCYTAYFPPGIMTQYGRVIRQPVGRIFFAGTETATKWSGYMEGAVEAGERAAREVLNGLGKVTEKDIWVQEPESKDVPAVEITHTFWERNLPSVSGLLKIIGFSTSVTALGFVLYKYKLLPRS
Description: Method to Determine the Ability of Compounds of Formula I to Inhibit Human Recombinant MAO-A
The selectivity of the compounds of this invention was tested by determining their ability to inhibit MAO-A activity in vitro, using recombinant human MAO-A (0.003 mg/mL; Sigma Aldrich). The assay was performed in a similar way as for human SSAO/VAP-1 (EXAMPLE 9) except, the substrate tyramine was used at 100 μM in place of benzylamine and the assay was run after an incubation time of 2 hours.

[2] = system: Myogenic cell cultures from both mdx mice and DMD patients; settings: in vitro; cited from earlier work
mdx mice = settings: 3-month old mdx mice, Vitiello L. et al. 2018; cited from earlier work

In the case of `N#Cc1ccc(OC/C(=C/F)CN)cc1Br` [Compound 3, (E)-4-((2-(aminomethyl)-3-fluoroallyl)oxy)-2-bromobenzonitrile], the IC50 [1] is reported as under 10 nM, the IC50 (Recombinant human MAO-B) is reported as under 50 nM and the IC50 (recombinant human MAO-A) is reported as 3000 to 30000 nM.
`COc1ccc(OC/C(=C\F)CN)cc1` [Compound 14] gave an IC50 [1] of under 10 nM, an IC50 (Recombinant human MAO-B) of under 50 nM and an IC50 (recombinant human MAO-A) of 300 to 3000 nM.
With `Cc1cc(OC/C(=C/F)CN)ccc1C#N` [Compound 5, (E)-4-((2-(aminomethyl)-3-fluoroallyl)oxy)-2-methylbenzonitrile] the IC50 [1] was under 10 nM, the IC50 (Recombinant human MAO-B) was under 50 nM and the IC50 (recombinant human MAO-A) was 3000 to 30000 nM.
`N#Cc1ccc(OC/C(=C\F)CN)cc1` [Compound 6] showed an IC50 [1] of under 10 nM, an IC50 (Recombinant human MAO-B) of under 50 nM and an IC50 (recombinant human MAO-A) of 300 to 3000 nM.
With `COc1cc(OC/C(=C/F)CN)ccc1C#N` [Compound 7] the IC50 [1] was 10 to 500 nM, the IC50 (Recombinant human MAO-B) was 50 to 500 nM and the IC50 (recombinant human MAO-A) was over 30000 nM.
For `C[C@H](NCc1ccc(OCc2cccc(F)c2)cc1)C(N)=O` [safinamide], the “susceptibility (sensitivity) to oxidative stress” value [2] is listed as “abrogated” and the “myofiber damage, oxidative stress and muscle function” value (mdx mice) is listed as “reduced myofiber damage and oxidative stress, and improved muscle function”.
`N#Cc1ccc(OC/C(=C/F)CN)cc1F` [Compound 2, (E)-4-((2-(aminomethyl)-3-fluoroallyl)oxy)-2-fluorobenzonitrile] gave an IC50 [1] of under 10 nM, an IC50 (Recombinant human MAO-B) of under 50 nM and an IC50 (recombinant human MAO-A) of over 30000 nM.
In the case of `N#Cc1ccccc1OC/C(=C/F)CN` [Compound 8], the IC50 [1] is reported as over 1000 nM, the IC50 (Recombinant human MAO-B) is reported as under 50 nM and the IC50 (recombinant human MAO-A) is reported as under 300 nM.
For `N#Cc1cccc(OC/C(=C/F)CN)c1` [Compound 9], the IC50 [1] was under 10 nM, the IC50 (Recombinant human MAO-B) was under 50 nM and the IC50 (recombinant human MAO-A) was 300 to 3000 nM.
`CS(=O)(=O)c1ccc(OC/C(=C/F)CN)cc1` [Compound 12] gave an IC50 [1] of under 10 nM, an IC50 (Recombinant human MAO-B) of over 1000 nM and an IC50 (recombinant human MAO-A) of over 30000 nM.
Work on `NC/C(=C\F)COc1ccc(OC(F)(F)F)cc1` [Compound 13] yielded an IC50 [1] of under 10 nM, an IC50 (Recombinant human MAO-B) of under 50 nM and an IC50 (recombinant human MAO-A) of under 300 nM.
In the case of `N#Cc1ccc(OC/C(=C/F)CN)c(F)c1` [Compound 4, (E)-4-((2-(aminomethyl)-3-fluoroallyl)oxy)-3-fluorobenzonitrile], the IC50 [1] is reported as under 10 nM, the IC50 (Recombinant human MAO-B) is reported as under 50 nM and the IC50 (recombinant human MAO-A) is reported as 3000 to 30000 nM.
In the case of `NC/C(=C\F)COc1ccccc1` [Compound 10], the IC50 [1] is reported as 10 to 500 nM, the IC50 (Recombinant human MAO-B) is reported as under 50 nM and the IC50 (recombinant human MAO-A) is reported as 300 to 3000 nM.
`NC/C(=C\F)COc1ccc(C(F)(F)F)cc1` [Compound 11] gave an IC50 [1] of under 10 nM, an IC50 (Recombinant human MAO-B) of under 50 nM and an IC50 (recombinant human MAO-A) of 3000 to 30000 nM.
